In one series the test system is HEK293T cells. In words: Adenylate energy charge by LC-MS in HEK293T cells. In kind it is cell-based. As to conditions: MSG011 up to 40 µM, 1 h. The procedure:
HEK293T cell cultures grown in six-well plates were gently washed in ice cold PBS, lysed with 150 µl of ice cold 0.5 M perchloric acid (Univar) and clarified by centrifugation (16 000g, 3 min, 4°C). An amount of 75 µl of clarified lysate was neutralised with 25 µl of ice cold 2.3 M KHCO3 (Sigma–Aldrich), incubated on ice for 5 min and then centrifuged (16 000g, 3 min, 4°C). Supernatants were collected for analysis by liquid chromatography mass spectrometry–mass spectrometry (LC–MS/MS).
Adenine nucleotide metabolites were measured by LC–MS/MS with modifications to our previously described method. A QTRAP 5500 mass spectrometer (AB Sciex) was operated with the turbo V ion source linked to Prominence UFLCXR LC-20ADXR pumps (Shimadzu), SIL-20AC HT autosampler (Shimadzu) and CTO-20A HPLC column oven (Shimadzu). Both LC and MS instruments were controlled and managed with the Analyst 1.7.1 software (AB Sciex). Nitrogen was provided by a Genius NM3G nitrogen gas generator (PEAK Scientific). […] Data was analysed with MultiQuant 3.0.2 software (AB Sciex) using area under the LC curve. Calibration curves were determined by linear regression of the peak area ratio of each nucleotide and were required to have a correlation coefficient (R^2) of >0.98. […] AEC was calculated from the ratios of [AMP], [ADP] and [ATP] […]

For a further series, the target named is T1, human GST-AMPK α2β1γ1 (Homo sapiens, UniProt P54646+Q9Y478).
T1 construct: triply transfected with full-length AMPK α1 or α2 (NH2-terminal GST fusion, pDEST27 vector); full-length AMPK α1 or α2 (NH2-terminal GST fusion, pDEST27 vector), β1 or β2 (COOH-terminal FLAG fusion, pcDNA3.1 vector); FLAG (C); made in house; host or cells: HEK293T/17 cells, transient triple transfection
T1 sequence (P54646 whole entry, the tested form may be a part): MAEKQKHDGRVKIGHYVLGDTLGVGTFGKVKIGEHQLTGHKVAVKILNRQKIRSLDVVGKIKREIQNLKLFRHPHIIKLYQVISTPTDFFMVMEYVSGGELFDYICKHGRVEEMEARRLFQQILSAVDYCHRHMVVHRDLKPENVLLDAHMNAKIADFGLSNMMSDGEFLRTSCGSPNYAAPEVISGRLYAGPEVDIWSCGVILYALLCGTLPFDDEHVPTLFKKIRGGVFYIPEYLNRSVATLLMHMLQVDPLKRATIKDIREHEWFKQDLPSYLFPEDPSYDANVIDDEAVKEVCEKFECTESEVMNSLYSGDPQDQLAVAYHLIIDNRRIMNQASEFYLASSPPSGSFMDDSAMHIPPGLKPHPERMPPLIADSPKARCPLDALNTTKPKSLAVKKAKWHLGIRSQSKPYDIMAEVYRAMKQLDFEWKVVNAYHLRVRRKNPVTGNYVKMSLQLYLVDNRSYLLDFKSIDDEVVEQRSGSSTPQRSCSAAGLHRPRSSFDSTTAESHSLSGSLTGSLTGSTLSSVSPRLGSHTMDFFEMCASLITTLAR
T1 sequence (Q9Y478 whole entry, the tested form may be a part): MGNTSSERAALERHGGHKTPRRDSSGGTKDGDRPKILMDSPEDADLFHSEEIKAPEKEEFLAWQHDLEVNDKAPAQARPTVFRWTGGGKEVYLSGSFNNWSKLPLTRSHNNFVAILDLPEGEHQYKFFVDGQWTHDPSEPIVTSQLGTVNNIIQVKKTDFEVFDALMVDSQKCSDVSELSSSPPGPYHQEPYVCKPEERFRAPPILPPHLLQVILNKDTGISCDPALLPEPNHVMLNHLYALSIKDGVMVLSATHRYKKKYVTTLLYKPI
T1 sequence (P54619 whole entry partner, the tested form may be a part): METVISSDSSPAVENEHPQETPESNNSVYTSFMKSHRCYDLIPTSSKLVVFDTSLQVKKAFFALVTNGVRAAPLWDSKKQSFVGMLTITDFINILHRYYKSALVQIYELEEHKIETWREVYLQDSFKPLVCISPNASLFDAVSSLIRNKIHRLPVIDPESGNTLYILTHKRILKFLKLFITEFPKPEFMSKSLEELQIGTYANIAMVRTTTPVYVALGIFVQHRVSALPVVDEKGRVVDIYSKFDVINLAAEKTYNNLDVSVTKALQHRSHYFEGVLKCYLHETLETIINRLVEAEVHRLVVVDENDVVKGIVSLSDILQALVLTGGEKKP
Kind of series: Radiolabel SAMS kinase assay, GST-AMPK from HEK293T/17 cells immobilised on glutathione-Sepharose. In kind it is biochemical. As to conditions: 1 µM compound. In a few lines: (§1)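 We assayed immobilised GST-tagged heterotrimers from HEK293T/17 cells by SAMS peptide phosphorylation using [γ-³²P]-ATP (200 µM ATP). Reactions ran for 10 min at 30°C in the absence or presence of 1 µM compound, and ³²P transfer was quantified by scintillation counting.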

The target of a further series is T2, human GST-AMPK α1β2γ1 (Homo sapiens, UniProt O43741+Q13131).
T2 construct: triply transfected with full-length AMPK α1 or α2 (NH2-terminal GST fusion, pDEST27 vector); full-length AMPK α1 or α2 (NH2-terminal GST fusion, pDEST27 vector), β1 or β2 (COOH-terminal FLAG fusion, pcDNA3.1 vector); FLAG (C); made in house; host or cells: HEK293T/17 cells, transient triple transfection
T2 sequence (Q13131 whole entry, the tested form may be a part): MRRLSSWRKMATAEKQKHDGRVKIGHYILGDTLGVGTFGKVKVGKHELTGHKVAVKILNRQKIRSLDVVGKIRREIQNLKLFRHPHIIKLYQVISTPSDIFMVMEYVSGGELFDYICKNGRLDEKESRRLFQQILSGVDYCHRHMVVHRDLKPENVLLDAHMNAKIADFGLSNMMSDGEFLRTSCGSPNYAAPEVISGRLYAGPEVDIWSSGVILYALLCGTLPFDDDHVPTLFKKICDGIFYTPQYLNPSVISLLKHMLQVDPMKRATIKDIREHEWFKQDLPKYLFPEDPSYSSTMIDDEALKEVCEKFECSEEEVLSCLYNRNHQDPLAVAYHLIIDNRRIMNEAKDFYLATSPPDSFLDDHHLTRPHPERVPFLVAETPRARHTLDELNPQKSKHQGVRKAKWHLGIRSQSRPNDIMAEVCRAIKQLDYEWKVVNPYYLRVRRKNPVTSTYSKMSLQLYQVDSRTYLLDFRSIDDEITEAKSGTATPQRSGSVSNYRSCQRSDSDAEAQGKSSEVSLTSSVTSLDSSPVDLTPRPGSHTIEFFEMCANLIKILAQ
T2 sequence (O43741 whole entry, the tested form may be a part): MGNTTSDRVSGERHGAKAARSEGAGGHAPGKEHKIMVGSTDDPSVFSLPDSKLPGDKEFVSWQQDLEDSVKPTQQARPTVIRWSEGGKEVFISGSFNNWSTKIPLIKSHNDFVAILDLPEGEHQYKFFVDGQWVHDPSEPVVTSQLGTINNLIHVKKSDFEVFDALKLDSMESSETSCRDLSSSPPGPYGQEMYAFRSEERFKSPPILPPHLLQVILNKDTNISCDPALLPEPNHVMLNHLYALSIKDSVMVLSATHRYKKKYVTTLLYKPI
T2 sequence (P54619 whole entry partner, the tested form may be a part): as the sequence (P54619 whole entry partner, the tested form may be a part) above
The description is as above. In kind it is biochemical. As to conditions: 1 µM compound. In a few lines: as §1

The next series deals with T3, human GST-AMPK α2β2γ1 (Homo sapiens, UniProt O43741+P54646).
T3 construct: triply transfected with full-length AMPK α1 or α2 (NH2-terminal GST fusion, pDEST27 vector); full-length AMPK α1 or α2 (NH2-terminal GST fusion, pDEST27 vector), β1 or β2 (COOH-terminal FLAG fusion, pcDNA3.1 vector); FLAG (C); made in house; host or cells: HEK293T/17 cells, transient triple transfection
T3 sequence (P54646 whole entry, the tested form may be a part): as the sequence (P54646 whole entry, the tested form may be a part) above
T3 sequence (O43741 whole entry, the tested form may be a part): as the sequence (O43741 whole entry, the tested form may be a part) above
T3 sequence (P54619 whole entry partner, the tested form may be a part): as the sequence (P54619 whole entry partner, the tested form may be a part) above
The series is described as above. It is filed as biochemical. Conditions: 1 µM compound. In a few lines: as §1

As to `CC(=O)NC1CC=C(c2ccc(-c3nc4nc(Oc5ccc(C)c(C(=O)O)c5)[nH]c4cc3Cl)cc2)CC1` (stereo not shown) [MSG011, 5-((5-(4′-Acetamido-2′,3′,4′,5′-tetrahydro-[1,1′-biphenyl]-4-yl)-6-chloro-1H-imidazo[4,5-b]pyridin-2-yl)oxy)-2-methylbenzoic acid], the “adenylate energy charge (AEC)” value in the series with HEK293T cells is given as “unaffected”. For the same compound, the “fold AMPK activation relative to vehicle” value on human GST-AMPK α2β1γ1, on human GST-AMPK α1β2γ1 and at human GST-AMPK α2β2γ1 was above 2.2 fold each time.

The record behind these values is paper PMC9317966, “Structure-function analysis of the AMPK activator SC4 and identification of a potent pan AMPK activator” (Biochemical Journal, 2022).
